From ChEMBL document CHEMBL4354805, “Discovery of MK-8719, a Potent O-GlcNAcase Inhibitor as a Potential Treatment for Tauopathies” (J Med Chem, 2019)

How the values were obtained:
MDR1 = test: Apparent permeability in pig LLC-PK1 cells transfected with MDR1; format: ADME, cell-based, Sus scrofa
[1] = Fraction unbound in human plasma at 2.5 uM by equilibrium dialysis; format: ADME, cell-free
Protein O-GlcNAcase [2] = target: T1, Protein O-GlcNAcase (Homo sapiens, UniProt O60502); test: Inhibition of recombinant human OGA
T1 sequence (O60502 whole entry): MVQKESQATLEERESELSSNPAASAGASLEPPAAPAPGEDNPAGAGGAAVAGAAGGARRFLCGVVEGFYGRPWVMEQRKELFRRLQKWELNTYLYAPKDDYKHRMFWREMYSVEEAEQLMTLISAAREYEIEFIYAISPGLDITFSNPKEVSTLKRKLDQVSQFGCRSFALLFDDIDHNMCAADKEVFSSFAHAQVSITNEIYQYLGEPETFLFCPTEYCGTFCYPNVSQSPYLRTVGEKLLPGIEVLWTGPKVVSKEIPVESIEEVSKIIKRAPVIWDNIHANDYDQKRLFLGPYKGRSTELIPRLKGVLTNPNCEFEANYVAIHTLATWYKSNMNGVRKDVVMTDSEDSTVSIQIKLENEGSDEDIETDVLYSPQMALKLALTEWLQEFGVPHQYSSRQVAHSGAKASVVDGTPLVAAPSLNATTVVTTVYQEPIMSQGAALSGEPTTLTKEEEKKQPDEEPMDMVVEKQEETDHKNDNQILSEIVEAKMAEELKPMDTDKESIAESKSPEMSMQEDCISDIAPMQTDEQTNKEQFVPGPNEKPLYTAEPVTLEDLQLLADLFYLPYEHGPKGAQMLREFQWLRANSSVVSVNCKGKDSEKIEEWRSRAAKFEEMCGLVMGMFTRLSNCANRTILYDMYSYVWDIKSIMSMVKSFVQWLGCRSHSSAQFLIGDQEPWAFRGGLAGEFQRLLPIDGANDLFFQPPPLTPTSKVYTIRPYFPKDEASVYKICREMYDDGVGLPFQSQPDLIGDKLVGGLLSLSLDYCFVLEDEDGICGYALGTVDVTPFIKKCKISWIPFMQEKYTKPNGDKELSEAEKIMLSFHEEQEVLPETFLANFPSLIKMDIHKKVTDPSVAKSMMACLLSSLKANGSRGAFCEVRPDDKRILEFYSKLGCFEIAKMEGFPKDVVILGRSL

Protein O-GlcNAcase [3] = target: T2, Protein O-GlcNAcase (Rattus norvegicus, UniProt Q8VIJ5); test: Inhibition of OGA in rat PC12 cells assessed as OGlcNAcylated protein level incubated for 24 hrs by ELISA; format: cell-based
T2 sequence (Q8VIJ5 whole entry): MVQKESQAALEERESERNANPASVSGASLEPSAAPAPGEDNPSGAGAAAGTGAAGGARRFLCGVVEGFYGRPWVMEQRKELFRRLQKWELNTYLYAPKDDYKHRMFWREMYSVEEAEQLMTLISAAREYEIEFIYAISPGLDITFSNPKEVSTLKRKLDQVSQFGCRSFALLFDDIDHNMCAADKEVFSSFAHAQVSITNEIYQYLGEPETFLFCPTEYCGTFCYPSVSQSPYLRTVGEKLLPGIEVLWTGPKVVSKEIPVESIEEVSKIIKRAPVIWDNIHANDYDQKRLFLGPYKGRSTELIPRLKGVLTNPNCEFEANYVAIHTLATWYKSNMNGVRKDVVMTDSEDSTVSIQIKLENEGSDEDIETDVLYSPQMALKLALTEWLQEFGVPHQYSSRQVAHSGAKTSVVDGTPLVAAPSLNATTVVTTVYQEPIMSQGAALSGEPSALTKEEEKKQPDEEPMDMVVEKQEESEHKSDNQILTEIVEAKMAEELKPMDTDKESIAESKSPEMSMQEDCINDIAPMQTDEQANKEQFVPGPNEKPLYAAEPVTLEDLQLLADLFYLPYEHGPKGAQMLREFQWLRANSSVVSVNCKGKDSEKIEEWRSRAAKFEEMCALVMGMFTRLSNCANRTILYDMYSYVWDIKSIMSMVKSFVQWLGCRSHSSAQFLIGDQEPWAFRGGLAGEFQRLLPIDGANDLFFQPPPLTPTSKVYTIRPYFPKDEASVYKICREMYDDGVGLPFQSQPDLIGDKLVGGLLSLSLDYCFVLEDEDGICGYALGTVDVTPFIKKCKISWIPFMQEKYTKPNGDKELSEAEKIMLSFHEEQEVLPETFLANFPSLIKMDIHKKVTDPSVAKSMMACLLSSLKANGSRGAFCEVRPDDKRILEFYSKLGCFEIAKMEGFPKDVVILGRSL

[4] = target: T3, Beta-hexosaminidase subunit beta (Homo sapiens, UniProt P07686); test: Inhibition of human beta hexosaminidase assessed as inhibitory constant using 4-methylumbelliferyl N-acetyl-beta-D-glucosaminide dihydrate as substrate measured every 60 sec for 45 mins by fluorescence spectrophotometry
T3 sequence (P07686 whole entry): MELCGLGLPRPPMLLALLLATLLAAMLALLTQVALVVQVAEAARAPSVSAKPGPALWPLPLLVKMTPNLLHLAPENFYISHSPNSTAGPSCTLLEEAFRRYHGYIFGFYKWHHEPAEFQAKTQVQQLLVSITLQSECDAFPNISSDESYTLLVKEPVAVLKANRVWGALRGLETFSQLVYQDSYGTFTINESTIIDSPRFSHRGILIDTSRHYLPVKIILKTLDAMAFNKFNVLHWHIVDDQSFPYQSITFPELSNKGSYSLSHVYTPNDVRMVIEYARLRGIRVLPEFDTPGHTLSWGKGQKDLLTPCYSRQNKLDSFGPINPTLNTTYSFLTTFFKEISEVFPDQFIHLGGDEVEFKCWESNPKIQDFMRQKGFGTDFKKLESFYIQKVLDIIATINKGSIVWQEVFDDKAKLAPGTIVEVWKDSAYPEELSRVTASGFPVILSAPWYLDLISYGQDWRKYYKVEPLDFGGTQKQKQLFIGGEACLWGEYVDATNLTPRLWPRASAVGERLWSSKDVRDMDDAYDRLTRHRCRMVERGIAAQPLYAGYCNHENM

[5] = Fraction unbound in Wistar Han rat plasma at 2.5 uM by equilibrium dialysis; format: ADME, cell-free
[6] = AUCN in Wistar Han rat at 3 mg/kg, po; format: ADME, organism-based; conditions: in vivo
[7] = Clearance in Wistar Han rat at 2 mg/kg, iv; format: ADME, organism-based; conditions: in vivo
[8] = Half life in Wistar Han rat at 2 mg/kg, iv; format: ADME, organism-based; conditions: in vivo
[9] = Volume of distribution at steady state in Wistar Han rat at 2 mg/kg, iv or 3 mg/kg, po; format: ADME, organism-based; conditions: in vivo, read-out: Vdss
[10] = Oral bioavailability in Wistar Han rat at 3 mg/kg; format: ADME, organism-based; conditions: in vivo
Rattus norvegicus [11] = test: Elevation of O-protein in rat brain at 3 mg/kg, po measured after 8 hrs relative to control; format: functional
Rattus norvegicus [12] = test: Elevation of O-protein in rat brain at 3 mg/kg, po measured after 24 hrs relative to control; format: functional
[13] = Drug uptake in rat brain at 3 mg/kg, po measured after 8 hrs; format: ADME, organism-based; conditions: in vivo
[14] = Drug uptake in rat brain at 3 mg/kg, po measured after 24 hrs; format: ADME, organism-based; conditions: in vivo
[15] = Ratio of drug uptake in rat brain to plasma at 3 mg/kg, po measured after 8 hrs; format: ADME, organism-based; conditions: read-out: BPR
[16] = Ratio of drug uptake in rat brain to plasma at 3 mg/kg, po measured after 24 hrs; format: ADME, organism-based; conditions: read-out: BPR
[17] = AUCN in Wistar Han rat at 10 mg/kg, po; format: ADME, organism-based; conditions: in vivo
[18] = Volume of distribution at steady state in Wistar Han rat at 2 mg/kg, iv or 10 mg/kg, po; format: ADME, organism-based; conditions: in vivo, read-out: Vdss
[19] = Oral bioavailability in Wistar Han rat at 10 mg/kg; format: ADME, organism-based; conditions: in vivo
[20] = target: Voltage-gated inwardly rectifying potassium channel KCNH2 (Homo sapiens, UniProt Q12809); test: Displacement of MK-0499 from human ERG
Sequence of Voltage-gated inwardly rectifying potassium channel KCNH2 (Q12809 whole entry): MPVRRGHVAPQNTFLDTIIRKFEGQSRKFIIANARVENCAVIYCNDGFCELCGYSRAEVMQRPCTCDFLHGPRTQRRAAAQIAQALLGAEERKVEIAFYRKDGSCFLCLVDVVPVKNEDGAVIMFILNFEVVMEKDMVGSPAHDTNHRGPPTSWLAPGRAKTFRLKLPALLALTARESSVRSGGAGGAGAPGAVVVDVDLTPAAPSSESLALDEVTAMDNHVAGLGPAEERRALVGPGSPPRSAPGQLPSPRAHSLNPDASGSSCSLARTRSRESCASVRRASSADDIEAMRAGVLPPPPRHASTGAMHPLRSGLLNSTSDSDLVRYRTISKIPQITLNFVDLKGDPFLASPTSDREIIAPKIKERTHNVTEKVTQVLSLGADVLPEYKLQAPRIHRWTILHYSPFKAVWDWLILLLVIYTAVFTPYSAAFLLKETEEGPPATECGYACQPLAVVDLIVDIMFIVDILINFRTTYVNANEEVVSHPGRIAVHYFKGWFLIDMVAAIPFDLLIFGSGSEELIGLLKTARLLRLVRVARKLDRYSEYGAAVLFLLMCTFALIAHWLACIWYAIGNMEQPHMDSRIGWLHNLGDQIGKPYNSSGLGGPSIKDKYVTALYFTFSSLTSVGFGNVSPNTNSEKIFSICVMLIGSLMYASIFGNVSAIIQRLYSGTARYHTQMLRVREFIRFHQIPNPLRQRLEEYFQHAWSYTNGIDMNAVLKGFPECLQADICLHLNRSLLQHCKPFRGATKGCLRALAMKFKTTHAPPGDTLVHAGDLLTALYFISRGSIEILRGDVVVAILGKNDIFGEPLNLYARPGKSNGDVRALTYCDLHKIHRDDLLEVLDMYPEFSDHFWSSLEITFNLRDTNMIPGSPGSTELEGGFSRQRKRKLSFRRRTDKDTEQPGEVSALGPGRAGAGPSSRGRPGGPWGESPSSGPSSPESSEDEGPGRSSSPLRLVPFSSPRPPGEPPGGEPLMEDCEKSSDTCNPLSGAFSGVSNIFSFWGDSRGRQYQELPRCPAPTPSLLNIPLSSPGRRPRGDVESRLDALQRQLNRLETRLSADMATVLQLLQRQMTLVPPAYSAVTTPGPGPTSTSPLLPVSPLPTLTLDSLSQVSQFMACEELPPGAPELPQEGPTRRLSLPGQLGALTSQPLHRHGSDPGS

[21] = target: Sodium channel protein type 5 subunit alpha (Homo sapiens, UniProt Q14524); test: Inhibition of Nav1.5 (unknown origin)
[22] = target: Voltage-dependent L-type calcium channel subunit alpha-1C (Homo sapiens, UniProt Q13936); test: Inhibition of Cav1.2 (unknown origin)
Sequence of Voltage-dependent L-type calcium channel subunit alpha-1C (Q13936 whole entry): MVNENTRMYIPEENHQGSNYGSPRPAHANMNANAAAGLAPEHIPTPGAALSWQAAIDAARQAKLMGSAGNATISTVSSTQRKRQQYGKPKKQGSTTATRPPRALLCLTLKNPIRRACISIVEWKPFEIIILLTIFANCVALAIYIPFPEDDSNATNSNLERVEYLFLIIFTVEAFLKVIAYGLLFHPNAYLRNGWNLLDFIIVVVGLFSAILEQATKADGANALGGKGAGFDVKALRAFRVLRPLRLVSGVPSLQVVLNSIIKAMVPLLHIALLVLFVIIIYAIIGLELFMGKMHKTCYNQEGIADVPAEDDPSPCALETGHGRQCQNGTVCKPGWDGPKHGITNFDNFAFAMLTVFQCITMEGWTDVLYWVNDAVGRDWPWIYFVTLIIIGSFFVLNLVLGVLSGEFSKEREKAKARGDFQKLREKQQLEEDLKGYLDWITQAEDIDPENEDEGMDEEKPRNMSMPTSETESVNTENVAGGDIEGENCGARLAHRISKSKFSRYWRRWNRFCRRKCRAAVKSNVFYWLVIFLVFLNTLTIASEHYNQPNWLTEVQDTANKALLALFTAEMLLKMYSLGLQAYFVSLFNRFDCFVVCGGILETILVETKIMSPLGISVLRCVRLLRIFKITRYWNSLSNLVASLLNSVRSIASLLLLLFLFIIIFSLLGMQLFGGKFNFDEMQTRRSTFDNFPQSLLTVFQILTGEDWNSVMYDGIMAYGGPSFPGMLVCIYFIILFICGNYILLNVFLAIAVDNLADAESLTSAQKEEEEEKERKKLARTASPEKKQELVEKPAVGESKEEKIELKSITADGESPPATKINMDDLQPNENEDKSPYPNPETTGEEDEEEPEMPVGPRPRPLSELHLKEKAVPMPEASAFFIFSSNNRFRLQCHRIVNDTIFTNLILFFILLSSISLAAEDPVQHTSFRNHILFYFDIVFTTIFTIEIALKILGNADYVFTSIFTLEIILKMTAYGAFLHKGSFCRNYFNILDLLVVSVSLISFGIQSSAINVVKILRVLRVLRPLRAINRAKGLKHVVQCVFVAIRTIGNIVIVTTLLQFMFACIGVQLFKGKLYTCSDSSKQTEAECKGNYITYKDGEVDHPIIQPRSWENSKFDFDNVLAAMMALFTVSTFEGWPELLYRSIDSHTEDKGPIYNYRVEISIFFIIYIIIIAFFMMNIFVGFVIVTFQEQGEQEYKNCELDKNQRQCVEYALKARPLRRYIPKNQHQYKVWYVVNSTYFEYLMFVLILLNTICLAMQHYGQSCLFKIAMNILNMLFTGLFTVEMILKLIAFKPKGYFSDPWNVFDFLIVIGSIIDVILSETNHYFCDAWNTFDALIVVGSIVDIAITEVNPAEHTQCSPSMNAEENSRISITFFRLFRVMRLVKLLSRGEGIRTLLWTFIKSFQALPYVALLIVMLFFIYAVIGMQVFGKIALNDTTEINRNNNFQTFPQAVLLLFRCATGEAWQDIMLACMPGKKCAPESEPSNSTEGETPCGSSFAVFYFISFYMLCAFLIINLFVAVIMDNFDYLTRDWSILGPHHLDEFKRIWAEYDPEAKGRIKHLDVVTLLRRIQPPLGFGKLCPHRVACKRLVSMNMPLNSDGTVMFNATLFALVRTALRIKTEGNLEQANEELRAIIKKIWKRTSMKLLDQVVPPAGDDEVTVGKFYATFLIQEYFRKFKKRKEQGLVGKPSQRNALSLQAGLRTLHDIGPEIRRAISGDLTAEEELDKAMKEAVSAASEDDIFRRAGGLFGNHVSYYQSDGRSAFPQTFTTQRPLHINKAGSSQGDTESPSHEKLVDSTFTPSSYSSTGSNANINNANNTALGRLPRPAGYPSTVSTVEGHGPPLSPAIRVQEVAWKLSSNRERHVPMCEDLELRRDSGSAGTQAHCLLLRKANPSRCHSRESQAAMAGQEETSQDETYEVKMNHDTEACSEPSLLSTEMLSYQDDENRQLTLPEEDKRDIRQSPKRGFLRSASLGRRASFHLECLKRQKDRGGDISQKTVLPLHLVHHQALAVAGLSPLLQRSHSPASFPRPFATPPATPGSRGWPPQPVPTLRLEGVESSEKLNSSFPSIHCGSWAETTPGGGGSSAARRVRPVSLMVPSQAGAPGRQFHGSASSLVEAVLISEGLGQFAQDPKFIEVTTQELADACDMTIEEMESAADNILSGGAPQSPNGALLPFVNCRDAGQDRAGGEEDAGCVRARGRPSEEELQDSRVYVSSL

Cytochrome P450 3A4 = Cytochrome P450 3A4 (Homo sapiens, UniProt P08684); test: Inhibition of CYP3A4 (unknown origin); format: ADME
Sequence of Cytochrome P450 3A4 (P08684 whole entry): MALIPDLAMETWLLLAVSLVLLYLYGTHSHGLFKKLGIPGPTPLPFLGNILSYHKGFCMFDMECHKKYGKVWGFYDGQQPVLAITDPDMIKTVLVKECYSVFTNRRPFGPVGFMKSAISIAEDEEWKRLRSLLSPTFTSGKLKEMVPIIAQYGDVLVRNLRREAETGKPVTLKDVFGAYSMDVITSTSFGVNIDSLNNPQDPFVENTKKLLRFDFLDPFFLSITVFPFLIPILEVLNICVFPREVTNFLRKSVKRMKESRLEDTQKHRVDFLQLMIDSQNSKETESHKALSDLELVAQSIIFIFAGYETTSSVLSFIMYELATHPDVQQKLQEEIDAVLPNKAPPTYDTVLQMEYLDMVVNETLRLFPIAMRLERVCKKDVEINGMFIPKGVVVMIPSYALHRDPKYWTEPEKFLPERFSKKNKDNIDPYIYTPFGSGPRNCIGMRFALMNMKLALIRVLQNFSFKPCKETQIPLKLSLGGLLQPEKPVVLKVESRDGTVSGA

Cytochrome P450 2D6 = Cytochrome P450 2D6 (Homo sapiens, UniProt P10635); test: Inhibition of CYP2D6 (unknown origin); format: ADME
Sequence of Cytochrome P450 2D6 (P10635 whole entry): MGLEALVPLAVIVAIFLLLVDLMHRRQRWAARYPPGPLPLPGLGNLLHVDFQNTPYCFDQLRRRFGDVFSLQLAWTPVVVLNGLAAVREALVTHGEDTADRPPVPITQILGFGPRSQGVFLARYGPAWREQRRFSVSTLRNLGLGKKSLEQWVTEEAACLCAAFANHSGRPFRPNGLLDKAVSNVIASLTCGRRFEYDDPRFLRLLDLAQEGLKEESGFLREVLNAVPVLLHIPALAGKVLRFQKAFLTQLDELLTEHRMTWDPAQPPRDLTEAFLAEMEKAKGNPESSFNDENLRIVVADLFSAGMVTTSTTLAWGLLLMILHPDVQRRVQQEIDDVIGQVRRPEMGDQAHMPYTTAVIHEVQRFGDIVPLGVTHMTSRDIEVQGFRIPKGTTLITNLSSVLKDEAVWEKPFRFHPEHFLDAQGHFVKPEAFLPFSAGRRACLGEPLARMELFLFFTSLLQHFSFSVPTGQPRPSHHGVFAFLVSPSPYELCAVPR

Cytochrome P450 2C9 = Cytochrome P450 2C9 (Homo sapiens, UniProt P11712); test: Inhibition of CYP2C9 (unknown origin); format: ADME
Sequence of Cytochrome P450 2C9 (P11712 whole entry): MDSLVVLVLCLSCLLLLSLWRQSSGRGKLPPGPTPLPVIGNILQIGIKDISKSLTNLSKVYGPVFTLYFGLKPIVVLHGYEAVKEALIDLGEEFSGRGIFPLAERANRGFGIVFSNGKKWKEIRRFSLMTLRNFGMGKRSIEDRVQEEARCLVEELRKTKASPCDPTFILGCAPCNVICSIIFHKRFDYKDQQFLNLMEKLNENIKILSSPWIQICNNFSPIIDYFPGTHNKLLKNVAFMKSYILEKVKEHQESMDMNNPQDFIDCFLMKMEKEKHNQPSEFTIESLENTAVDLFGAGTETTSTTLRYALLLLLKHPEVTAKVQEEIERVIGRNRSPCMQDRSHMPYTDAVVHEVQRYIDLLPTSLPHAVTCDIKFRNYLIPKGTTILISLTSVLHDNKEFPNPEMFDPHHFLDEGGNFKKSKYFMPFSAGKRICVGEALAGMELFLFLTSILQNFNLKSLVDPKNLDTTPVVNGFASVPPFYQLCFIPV

[23] = target: T4, Nuclear receptor subfamily 1 group I member 2 (Homo sapiens, UniProt O75469); test: Activation of PXR (unknown origin) assessed as CYP3A4 induction
T4 sequence (O75469 whole entry): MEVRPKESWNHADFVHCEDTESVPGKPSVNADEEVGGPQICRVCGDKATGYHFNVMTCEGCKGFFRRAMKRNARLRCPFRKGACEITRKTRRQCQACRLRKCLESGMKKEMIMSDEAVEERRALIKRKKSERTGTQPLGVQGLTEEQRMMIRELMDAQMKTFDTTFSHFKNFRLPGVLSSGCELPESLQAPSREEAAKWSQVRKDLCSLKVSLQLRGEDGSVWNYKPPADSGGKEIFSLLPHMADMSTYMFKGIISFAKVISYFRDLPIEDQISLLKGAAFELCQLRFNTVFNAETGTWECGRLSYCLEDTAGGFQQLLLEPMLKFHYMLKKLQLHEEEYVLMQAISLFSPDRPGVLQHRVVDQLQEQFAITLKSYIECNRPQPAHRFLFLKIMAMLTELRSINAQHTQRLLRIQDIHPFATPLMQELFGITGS

SMILES | Papp (MDR1) [×10⁻⁶ cm/s] | fraction unbound at 2.5 µM [1] | Ki (Protein O-GlcNAcase [2]) [nM] | EC50 (Protein O-GlcNAcase [3]) [nM] | Ki [4] [nM] | fraction unbound at 2.5 µM [5] | AUC/dose [6] [µM·kg·h/mg] | clearance [7] [mL/min/kg] | half-life [8] [h] | Vd [9] [L/kg] | bioavailability [10] [%] | Drug uptake [13] [nmol/g] | Drug uptake [14] [nmol/g] | Kp at 8 h [15] | Kp at 24 h [16] | AUC/dose [17] [µM·kg·h/mg] | Vd [18] [L/kg] | bioavailability [19] [%] | fold change (FC) (Rattus norvegicus [11]) | fold change (FC) (Rattus norvegicus [12]) | other results
CNC1=N[C@@H]2[C@@H](O)[C@H](O)[C@@H](CF)O[C@@H]2S1 | 5.3 | 0.96 | 0.55 | 34.4 | 790 | 0.88 | 3.36 | 27.8 | 1.71 | 1.79 | 132 | 0.068 | 0.025 | 0.6 | ≥ 7.9 | – | – | – | 2.44 | 1.65 | –
CNC1=N[C@@H]2C[C@H](O)[C@@H](CO)O[C@@H]2S1 | – | – | 9.4 | 33.1 | > 10000 | – | – | 39 | 1.06 | – | – | – | – | – | – | 2.53 | 2.8 | 129 | – | – | –
OC[C@H]1O[C@@H]2SC(N3CCC3)=N[C@@H]2[C@@H](O)[C@@H]1O | – | – | 3.3 | 28 | > 10000 | – | – | 53.6 | 1.63 | – | – | – | – | – | – | 1.15 | 2.88 | 96 | – | – | –
CCN(C)C1=N[C@@H]2[C@@H](O)[C@H](O)[C@@H](CO)O[C@@H]2S1 | 1.1 | – | 5.5 | 36.7 | 3600 | – | – | 66.3 | 1.89 | – | – | – | – | – | – | 0.598 | 5.39 | 62 | – | – | IC50 [20]: > 30000 nM; IC50 [21]: > 30000 nM; IC50 [22]: > 30000 nM; IC50 (Cytochrome P450 3A4): > 50000 nM; IC50 (Cytochrome P450 2D6): > 50000 nM; IC50 (Cytochrome P450 2C9): > 50000 nM; EC50 [23]: > 30000 nM

Continued, in another order:

Papp (MDR1) [×10⁻⁶ cm/s] | fraction unbound at 2.5 µM [1] | Ki (Protein O-GlcNAcase [2]) [nM] | EC50 (Protein O-GlcNAcase [3]) [nM] | Ki [4] [nM] | fraction unbound at 2.5 µM [5] | AUC/dose [6] [µM·kg·h/mg] | clearance [7] [mL/min/kg] | half-life [8] [h] | Vd [9] [L/kg] | bioavailability [10] [%] | Drug uptake [13] [nmol/g] | Drug uptake [14] [nmol/g] | Kp at 8 h [15] | Kp at 24 h [16] | AUC/dose [17] [µM·kg·h/mg] | Vd [18] [L/kg] | bioavailability [19] [%] | SMILES | fold change (FC) (Rattus norvegicus [11]) | fold change (FC) (Rattus norvegicus [12]) | other results
6.8 | > 0.99 | 9 | 177 | 1600 | > 0.99 | 0.954 | 43.7 | – | 10.5 | 75.3 | 0.222 | 0.038 | 0.9 | 1.53 | – | – | – | CN(C)C1=N[C@@H]2[C@@H](O)[C@H](O)[C@@H](CF)O[C@@H]2S1 | 2.33 | 1.77 | –
2.7 | – | 29 | 443 | > 10000 | – | – | 31.9 | 2.4 | – | – | – | – | – | – | 2.16 | 2 | 104 | CCNC1=N[C@@H]2[C@@H](F)[C@H](O)[C@@H](CO)O[C@@H]2S1 | – | – | IC50 [20]: > 30000 nM; IC50 [21]: > 30000 nM; IC50 [22]: > 30000 nM; IC50 (Cytochrome P450 3A4): > 50000 nM; IC50 (Cytochrome P450 2D6): > 50000 nM; IC50 (Cytochrome P450 2C9): > 50000 nM; EC50 [23]: > 30000 nM
